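Where inhibition never reached the appropriate level, the endpoint shown equals the highest concentration tested. Otherwise, values were interpolated linearly from a five-concentration, 48-hour dose response in 96-well plates. GI50 marks 50% less growth. TGI: total growth inhibition.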 *1 amine or outer side, *2 acyl side, *3 side chain or, on linkers, in order; H or OH if unused. Where a SMILES comes first, the peptide text is derived from it. The star is where a group is joined. γGlu = O=C(O)[CH](CCC(=O)[*:2])N[*:1]; NHOH = ON*
Key:
Assay in all cases: growth of human tumour cells (NCI), 48 h
HCT-116 colon = test system: HCT-116 colon
K-562 leukemia = test system: K-562 leukemia
SF-539 CNS = test system: SF-539 CNS
UO-31 renal = test system: UO-31 renal
CCRF-CEM leukemia = test system: CCRF-CEM leukemia
OVCAR-4 ovarian = test system: OVCAR-4 ovarian
TK-10 renal = test system: TK-10 renal
SN12C renal = test system: SN12C renal
MCF7 breast = test system: MCF7 breast
U251 CNS = test system: U251 CNS

SMILES	TGI (HCT-116 colon) [µM]	TGI (K-562 leukemia) [µM]	TGI (SF-539 CNS) [µM]	TGI (UO-31 renal) [µM]	TGI (CCRF-CEM leukemia) [µM]	TGI (OVCAR-4 ovarian) [µM]	TGI (TK-10 renal) [µM]	TGI (SN12C renal) [µM]	TGI (MCF7 breast) [µM]	TGI (U251 CNS) [µM]	GI50 (HCT-116 colon) [µM]	GI50 (K-562 leukemia) [µM]	GI50 (SF-539 CNS) [µM]	GI50 (UO-31 renal) [µM]	GI50 (CCRF-CEM leukemia) [µM]	GI50 (OVCAR-4 ovarian) [µM]	GI50 (TK-10 renal) [µM]	GI50 (SN12C renal) [µM]	GI50 (MCF7 breast) [µM]	GI50 (U251 CNS) [µM]
COc1cc(/C=C2\CC3C4CC=C5C[C@@H](O)CC[C@]5(C)C4CC[C@]3(C)\C2=N\O)cc(OC)c1OC (stereo not given in full)	21.2	> 100	34.7	11.1	> 100	68.8	> 100	54.1	15	28.2	–	–	–	–	–	–	–	–	–	–
CC(=O)Oc1ccc2c(c1)O/C(=C\c1ccc(N(C)C)cc1)C2=O	> 100	> 100	> 100	> 100	> 100	> 100	> 100	> 100	> 100	> 100	–	–	–	–	–	–	–	–	–	–
CC(Nc1cccc(Cl)c1)c1ccncc1 (stereo not given)	> 100	> 100	> 100	> 100	> 100	> 100	> 100	> 100	> 100	> 100	–	–	–	–	–	–	–	–	–	–
O=S(=O)(O)c1cc(O)c(N=NC2S(=O)(=O)OCCOS2(=O)=O)c2ccccc12	> 100	> 100	> 100	> 100	> 100	> 100	> 100	> 100	> 100	> 100	–	–	–	–	–	–	–	–	–	–
COC(=O)C12C(=O)CC3CCC1C32C(=O)OC (stereo not given)	> 100	> 100	> 100	> 100	> 100	> 100	> 100	> 100	> 100	> 100	–	–	–	–	–	–	–	–	–	–
COc1cc(OC)c(-n2[nH]c(=O)n(C)c2=O)c(OC)c1	> 100	> 100	> 100	> 100	> 100	> 100	> 100	> 100	> 100	> 100	–	–	–	–	–	–	–	–	–	–
CCOC(=O)c1nc(SC)sc1NC(=O)c1ccc(OC)cc1	48.2	> 100	34.9	> 100	> 100	89.9	54.7	> 100	> 100	55.4	–	–	–	–	–	–	–	–	–	–
Cc1cccc(C)c1NC(=S)N/C=C(\C#N)C(N)=O	> 100	> 100	> 100	> 100	> 100	> 100	> 100	> 100	> 100	> 100	–	–	–	–	–	–	–	–	–	–
COc1cc2ncnc(Nc3cccc(Br)c3)c2cc1OC	39.3	> 55.5	17	33.6	> 89.8	> 49.8	13.5	> 52.4	> 52	> 46.7	–	–	–	–	–	–	–	–	–	–
CCCCCCCCCCCCCOCCOCCOCCCCC(O)CCCCCCCCCC1=C[C@H](C)OC1=O (stereo not given in full)	33.4	> 100	45.3	44.4	> 100	71.9	22.5	71.4	> 100	42.2	–	–	–	–	–	–	–	–	–	–
Fc1ccc(F)c(C=NC23CC4CC(CC(C4)C2)C3)c1	> 10	> 10	> 10	> 10	> 10	> 10	> 10	> 10	> 10	> 10	–	–	–	–	–	–	–	–	–	–
O=C(Nc1ccc(Cl)cc1)c1cc(S(=O)(=O)Nc2nc3ncccc3[nH]2)c(SSc2cc(Cl)c(C(=O)Nc3ccc(Cl)cc3)cc2S(=O)(=O)Nc2nc3ncccc3[nH]2)cc1Cl	> 100	> 100	> 100	> 100	> 100	> 100	> 100	> 100	> 100	> 100	–	–	–	–	–	–	–	–	–	–
CCCCOC(=O)Nc1ccc(S(=O)(=O)Nc2c(Cl)cccc2Cl)cc1	57.5	47.8	80	61.5	> 100	42.5	77.9	> 100	92.4	> 100	–	–	–	–	–	–	–	–	–	–
NC(CCC(=O)NC(CCC(=O)NO)C(=O)NCC(=O)O)C(=O)O (stereo not given) (γGlu-Glu(NHOH)-Gly-OH; configuration not given here)	> 100	> 100	> 100	> 100	> 100	> 100	> 100	> 100	> 100	> 100	–	–	–	–	–	–	–	–	–	–
COc1ccccc1C1C(C#N)=C(N)SC(N)=C1C#N	> 100	> 100	> 100	> 100	70.4	> 100	> 100	42	> 100	> 100	43.8	41.8	90.7	82.5	26.6	81.1	> 100	15.5	30.6	54
Cc1ccc(N=NC(=Nc2ccc(F)cc2)c2ccc(N(CCC#N)CCC#N)cc2)cc1	> 100	> 100	> 100	> 100	> 100	> 100	> 100	> 100	> 100	> 100	–	–	–	–	–	–	–	–	–	–
CC(=O)N1N=C(c2ccccc2)NC(=O)C1c1cc(C)c(O)c(C)c1 (stereo not given)	54.1	> 100	40.3	48.9	> 100	43.3	38.2	79.1	43.6	35	–	–	–	–	–	–	–	–	–	–

SMILES	TGI (HCT-116 colon) [µM]	TGI (K-562 leukemia) [µM]	TGI (SF-539 CNS) [µM]	TGI (UO-31 renal) [µM]	TGI (CCRF-CEM leukemia) [µM]	TGI (OVCAR-4 ovarian) [µM]	TGI (TK-10 renal) [µM]	TGI (SN12C renal) [µM]	TGI (MCF7 breast) [µM]	TGI (U251 CNS) [µM]	GI50 (HCT-116 colon) [µM]	GI50 (K-562 leukemia) [µM]	GI50 (SF-539 CNS) [µM]	GI50 (UO-31 renal) [µM]	GI50 (CCRF-CEM leukemia) [µM]	GI50 (OVCAR-4 ovarian) [µM]	GI50 (TK-10 renal) [µM]	GI50 (SN12C renal) [µM]	GI50 (MCF7 breast) [µM]	GI50 (U251 CNS) [µM]
O=c1[nH]nc(-c2ccc3ccccc3c2)[nH]1	> 100	> 100	> 100	> 100	> 100	> 100	> 100	> 100	> 100	> 100	–	–	–	–	–	–	–	–	–	–
CC1OC1C(=O)P(=O)(O)O (stereo not given)	> 100	> 100	> 100	> 100	> 100	> 100	> 100	> 100	> 100	> 100	–	–	–	–	–	–	–	–	–	–
CCN(CC)C1=Nc2ccccc2-n2ccnc2C1	> 100	> 100	> 100	> 100	> 100	> 100	> 100	> 100	> 100	> 100	–	–	–	–	–	–	–	–	–	–
CCO/C(O)=c1/s/c(=C2/SC(=S)N(c3ccc(C)cc3)C2=O)n(-c2ccccc2)c1=N	> 100	> 100	39	> 100	> 100	44.3	> 100	> 100	> 100	> 100	–	–	–	–	–	–	–	–	–	–
COc1ccc(Nc2nc3ccccc3nc2-c2cccs2)cc1OC	> 10	> 10	> 10	> 10	> 10	> 10	> 10	> 10	> 10	> 10	–	–	–	–	–	–	–	–	–	–
O=C1C(NS(=O)(=O)c2ccccc2)=C(n2ccnc2)C(=O)c2ccccc21	> 100	> 100	> 100	> 100	> 100	> 100	> 100	> 100	> 100	> 100	–	–	–	–	–	–	–	–	–	–
CN(C)CC1CCC/C(=C\c2ccc(Cl)c(Cl)c2)C1=O (stereo not given)	3.96	5.47	12.5	5.99	2.68	14.3	8.19	8.79	5.44	6.52	–	–	–	–	–	–	–	–	–	–
CCCCCCc1cc2cc(C(=O)Nc3nc(C45CC6CC(CC(C6)C4)C5)cs3)c(=O)oc2cc1O	13.2	11	38.6	67.6	50.5	42.1	34.2	28.7	> 100	28.6	–	–	–	–	–	–	–	–	–	–
CCOC(=O)Cn1nnc2ccc(Nc3nc4ccccc4nc3C(=O)OCC)cc21	> 100	> 100	91.8	> 100	> 100	> 100	> 100	> 100	> 100	> 100	–	–	–	–	–	–	–	–	–	–
O=[N+]([O-])C1=Cc2c(O)ccc(O)c2C2OC=CC12 (stereo not given)	32.1	> 100	47.5	29.7	> 26.8	30.2	30.3	35	30.9	32.6	–	–	–	–	–	–	–	–	–	–
COc1ccc(OC)c([N+](=O)[O-])c1-c1nc2sc(Cl)cn2c1/C=N/N=C(N)N	> 100	56.3	53.5	33.1	> 100	30.1	48.7	37.5	46.3	> 100	–	–	–	–	–	–	–	–	–	–
CC1=NN(c2ccccc2)C(=O)/C1=C1\SC(c2ccccc2)(c2ccccc2)c2ccccc21	> 100	> 100	> 100	> 100	> 100	> 100	> 100	> 100	> 100	> 100	–	–	–	–	–	–	–	–	–	–
CC1(N2CCOCC2)CC2C(=[N+]1[O-])CCC/C2=N/O (stereo not given)	> 100	> 100	> 100	> 100	> 100	> 100	> 100	> 100	> 100	> 100	–	–	–	–	–	–	–	–	–	–
N#C/C=C(/NC(=O)Nc1ccccc1)N1CCCC1	> 55.5	> 100	> 65.7	> 100	> 100	> 100	> 55.4	> 100	> 55	> 53.8	–	–	–	–	–	–	–	–	–	–
COc1nc2ncc([C@@H](OC(C)=O)[C@@H](COC(C)=O)OC(C)=O)nc2c(=O)n1C	> 100	> 100	> 100	> 100	> 100	> 100	> 100	> 100	> 100	> 100	–	–	–	–	–	–	–	–	–	–
Cc1cc2c(cc1Cl)SSc1cc(Cl)c(C)cc1S(=O)(=O)Nc1nc(N)nn1C(O)n1nc(N)nc1NS2(=O)=O	> 10	> 10	> 10	> 10	> 10	> 10	> 10	> 10	> 10	> 10	–	–	–	–	–	–	–	–	–	–
c1ccc(C/C(=N\Nc2nc3ccccc3[nH]2)c2ccccn2)cc1	5.18	> 100	0.741	1.88	0.375	10.4	1.83	10.9	0.607	12.3	–	–	–	–	–	–	–	–	–	–

Source: PubChem BioAssay (NCI)
